Measured values as given in US4551547A, “Biocidal 2-aryl-1, 3-cyclopentanedione enol ester compounds” (Union Carbide Corporation, priority 1983, dated 1985).
In brackets after ≈: the same amount, converted by molar mass.

How the values were obtained:
[1] = system: two-spotted mite (adults and nymphal stages); test: Mite Foliage Spray Test (adults and nymphs); assay type: in vivo, Tetranychus urticae (Koch); set-up: key to Miticidal, Adult: A: Excellent Control; B: Partial Control; No Control; conditions: for Miticidal, Adult: Table II, mortality count after four days; for LC50: Tetranychus urticae, foliar, Table III, ppm required for a 50 percent kill of mites, read-out: Miticidal LD50, Adult
Method: Suspensions of the test compounds were prepared by dissolving one gram of compound in 50 milliliters of acetone in which had been dissolved 0.1 gram (10 percent of the weight of compound) of an alkylphenoxyethanol sufactant, as an emulsifying or dispersing agent. The resulting solution was mixed into 160 milliliters of water to give roughly 200 milliliters of a suspension containing the compound in finely divided form. The thus prepared stock suspension contained 0.5 percent by weight of compound. The test concentrations employed in the tests described below were obtained by diluting the stock suspension with water. The test procedures were as follows: Adults and nymphal stages of the two-spotted mite (Tetranychus urticae (Koch)), reared on Tender-green beam plants at 80±5° F. and 50±5 percent relative humidity, were the tests organisms. Infested leaves from a stock culture were placed of the primary leaves of two bean plants six to eight inches in height, growing in a two-and-a-half inch clay pot. 150-200 Mites, a sufficient number for testing, transferred from the excised leaves to the fresh plants in a period of twenty-four hours. Following the twenty-four hour transfer period, the excised leaves were removed from the infested plants. The test compounds were formulated by diluting the stock suspension with water to provide suspensions containing the desired amount of test compound per million parts of final formulation. The potted plants (one pot per compound) were placed on a revolving turntable and sprayed with 100-110 milliliters of tests compound formulation by use of a DeVilbis spray gun set at 40 psi, air pressure. This application, which lasted 30 seconds, was sufficient to wet the plants to run-off. As a control, 100-110 milliliters of a water solution containing acetone and emulsifier in the same concentrations as the test compound formulation, but containing no test compound, were also sprayed on infested plants. The sprayed plants were held at 80±5° F. and 50±5 percent relative humidity for four days, after which, a mortality count of motile forms was made on the leaves of the test plants. Any individual which was capable of locomotion upon prodding was considered living. In these tests the pesticidal activity of the compounds against mites and mite eggs was rated as follows: Tests were conducted in accordance with the procedures given at pages 17 to 21 supra. The results are expressed in the same manner as used in Table II, except with respect to miticidal activity. For mite adult and mite egg comparison purposes, results are given in parts per million (ppm) required for a 50 percent kill of mites or eggs, respectively.

Bean = test: Post-emergent herbicidal test, bean; assay type: in vivo; set-up: key: 1: no perceptible injury; 2: intermediate degrees of injury; 3: intermediate degrees of injury; 4: intermediate degrees of injury; 5: the plant was dead; conditions: 2500 parts per million, after ten days; for Post-emergent Herbicidal, Bean: Table II; for Post Emergent Herbicidal, Bean: Table III
Method: (§1) Suspensions of the test compounds were prepared by dissolving one gram of compound in 50 milliliters of acetone in which had been dissolved 0.1 gram (10 percent of the weight of compound) of an alkylphenoxyethanol sufactant, as an emulsifying or dispersing agent. The resulting solution was mixed into 160 milliliters of water to give roughly 200 milliliters of a suspension containing the compound in finely divided form. The thus prepared stock suspension contained 0.5 percent by weight of compound. The test concentrations employed in the tests described below were obtained by diluting the stock suspension with water. The test procedures were as follows:
(§2) Experiments were also conducted to determine the phytotoxicity of representative compositions with respect to healthy fresh plants. Solutions of the compounds were prepared as described above to provide a concentration of 2500 parts per million of the test compound. The test plants were sprayed in accordance with the procedure described above for the Mite Foliage Spray Test so as to deliver approximately 100 milliliters of test solutions to the leaves of each plant tested. The sprayed plants and controls were set aside for approximately one hour to allow the solutions to dry and were then placed in the greenhouse. After ten days the plants were visually inspected to determine the extent of foliage injury. A rating of 1 indicates no perceptible injury; 5 indicates the plant was dead and ratings of 2, 3 and 4 indicate intermediate degrees of injury based upon the number and extent to which leaves were injured.

Soybean = test: Post-emergent herbicidal test, soybean; assay type: in vivo; set-up: key: 1: no perceptible injury; 2: intermediate degrees of injury; 3: intermediate degrees of injury; 4: intermediate degrees of injury; 5: the plant was dead; conditions: 2500 parts per million, after ten days; for Post-emergent Herbicidal, Soybean: Table II; for Post Emergent Herbicidal, Soybean: Table III
Method: as §1, §2

SMILES | Miticidal, Adult [1] | Post-emergent Herbicidal, Bean (Bean) | Post-emergent Herbicidal, Soybean (Soybean) | LC50 [1] [µg/mL] | Post Emergent Herbicidal, Bean (Bean) | Post Emergent Herbicidal, Soybean (Soybean)
Cc1ccc(C2=C(OC(=O)c3ccccc3)CCC2=O)c(C)c1 [Compound 10] | C | 3 | 1 |  |  | 
CCCCC(CC)C(=O)OC1=C(c2ccccc2C)C(=O)C2CCCCC12 (stereo not drawn) [Compound 21, 3-(2-Ethylhexanoyloxy)-2-(2'-methylphenyl)-4,5,6,7,8,9-hexahydro-2-indenone] | A | 1 | 2 |  |  | 
Cc1ccc(C)c(C2=C(OC(=O)C(C)C)CCC2=O)c1 [Compound 12] | B | 2 | 3 |  |  | 
Cc1ccc(C)c(C2=C(OC(=O)C(C)C)CC(C)C2=O)c1 (stereo not drawn) [Compound 16] | B | 3 | 2 |  |  | 
CC(=O)OC1=C(c2cc(C)ccc2C)C(=O)C(C)C1 (stereo not drawn) [Compound 15] | A | 2 | 2 |  |  | 
CCCCCCCCCCCCCCCC(=O)OC1=C(c2ccc(Cl)cc2Cl)C(=O)CC1 [Compound 6] | A | 1 | 1 |  |  | 
CCCCC(CC)C(=O)OC1=C(c2ccc(Cl)cc2Cl)C(=O)CC1 (stereo not drawn) [Compound 5] | A | 3 | 2 |  |  | 
CCCCC(CC)C(=O)OC1=C(c2cc(C)ccc2C)C(=O)C2CCCCC12 (stereo not drawn) [Compound 30, 3-(2-ethylhexanoyloxy)-2-(2',5'-dimethylphenyl)-4,5,6,7,8,9-hexahydro-2-indenone] | A | 1 | 1 |  |  | 
CCCCCCCCCC(=O)OC1=C(c2ccccc2C)C(=O)C2CCCCC12 (stereo not drawn) [Compound 23] | A | 2 | 3 |  |  | 
Cc1ccc(C)c(C2=C(OC(=O)C(C)C)C3CCCCC3C2=O)c1 (stereo not drawn) [Compound 29] | A | 1 | 2 |  |  | 
CC(=O)OC1=C(c2cc(C)ccc2C)C(=O)CC1 [Compound 11] | A | 2 | 2 |  |  | 
CCCCCCCCCCCCCCCC(=O)OC1=C(c2ccccc2C)C(=O)C2CCCCC12 (stereo not drawn) [drawing 17] |  |  |  | 20 (≈ 41.6 µM) | 1 | 2
CC(C)C(=O)OC1=C(c2ccc(Cl)cc2Cl)C(=O)CC1 [Compound 4] | B | 2 | 2 |  |  | 
CCCCCCCCCC(=O)OC1=C(c2cc(C)ccc2C)C(=O)C2CCCCC12 (stereo not drawn) [drawing 19] |  |  |  | 25 (≈ 60.9 µM) | 1 | 1
CCCCCCCCCCCCCCCC(=O)OC1=C(c2cc(C)ccc2C)C(=O)C(C)C1 (stereo not drawn) [Compound 18] | A | 2 | 2 |  |  | 
CCCCCCCCCCCCCCCC(=O)OC1=C(c2ccccc2C)C(=O)c2ccccc21 [reference compound] |  |  |  | 500 (≈ 1050 µM) | 1 | 0
CCCCCCCCCC(=O)OC1=C(c2ccccc2C)C(=O)C2CCCCC12 (stereo not drawn) [drawing 15] |  |  |  | 2 (≈ 5.04 µM) | 2 | 3
CCCCC(CC)C(=O)OC1=C(c2ccc(C)cc2C)C(=O)C2CCCCC12 (stereo not drawn) [Compound 26, 3-(2-ethylhexanoyloxy)-2-(2',4'-dimethylphenyl)-4,5,6,7,8,9-hexahydro-2-indenone] | A | 2 | 2 |  |  | 
CC(=O)OC1=C(c2ccccc2C)C(=O)C2CCCCC12 (stereo not drawn) [Compound 19, 3-acetoxy-2-(2'-methylphenyl)-4,5,6,7,8,9-hexahydro-2-indenone] | A | 3 | 3 |  |  | 
CCCCCCCCCCCCCCCC(=O)OC1=C(c2ccccc2C)C(=O)C2CCCCC12 (stereo not drawn) [Compound 24] | A | 1 | 2 |  |  | 
CCCCC(CC)C(=O)OC1=C(c2ccc(C)cc2C)C(=O)CC1 (stereo not drawn) [Compound 9, 3-(2-ethylhexanoyloxy)-2-(2', 4'-dimethylphenyl)-2-cyclopentenone] | A | 2 | 1 |  |  | 
CCCCC(CC)C(=O)OC1=C(c2cc(C)ccc2C)C(=O)CC1 (stereo not drawn) [Compound 13] | A | 2 | 3 |  |  | 
CC(=O)OC1=C(c2ccc(Cl)cc2Cl)C(=O)CC1 [Compound 3] | A | 2 | 2 |  |  | 
CCCCC(CC)C(=O)OC1=C(c2ccccc2C)C(=O)CC1 (stereo not drawn) [Compound 7] | A | 2 | 2 |  |  | 
Cc1ccccc1C1=C(OC(=O)C(C)(C)C)C2CCCCC2C1=O (stereo not drawn) [Compound 22] | A | 2 | 3 |  |  | 
CCCCC(CC)C(=O)OC1=C(c2ccccc2C)C(=O)CC1 (stereo not drawn) [drawing 21] |  |  |  | 220 (≈ 700 µM) | 2 | 2
Cc1ccccc1C1=C(OC(=O)C(C)C)C2CCCCC2C1=O (stereo not drawn) [Compound 20] | A | 3 | 3 |  |  | 
CCCCCCCCCCCCCCCC(=O)OC1=C(c2cc(C)ccc2C)C(=O)C2CCCCC12 (stereo not drawn) [Compound 33] | A | 1 | 1 |  |  | 
CC(=O)OC1=C(c2ccc(C)cc2C)C(=O)C2CCCCC12 (stereo not drawn) [Compound 25] | A | 1 | 2 |  |  | 
CCCCC(CC)C(=O)OC1=C(c2cc(C)ccc2C)C(=O)C(C)C1 (stereo not drawn) [Compound 17] | A | 3 | 3 |  |  | 
